The record followed here is patent publication US8785452B2, “Anti-infective compounds” (priority 2008, dated 2014).

In brackets after ≈: the same amount, converted by molar mass. Where two headings read alike, the source gives them in different places.

For the assay, the system named is M. tuberculosis H37Rv-GFP. Description: microbe, parasite or virus in culture. Format: cell-based, Mycobacterium tuberculosis. Conditions: Mycobacterium tuberculosis, H37RV; for inhibition at 20 µM: Macrophage.
Setting [1] is: confirmation, 20 uM, intracellular, read-out: QIM Confirm % Inhibition 20 uM.
Setting [2] is: primary screen, 20 μM, intracellular, read-out: Primary QIM % Inhibition.
[3] abbreviates: read-out: Primary QIM % Inhibition.
Setting [4] is: read-out: QIM Confirm % Inhibition 20 uM.

Broadly, the inhibition is the drop in the measured response relative to a control, in per cent. For `O=C(COc1ccc(F)cc1)N/N=C/c1ccc([N+](=O)[O-])o1` [IPK 000 148 04], the inhibition at 20 µM came out at 59.3% under setting [1] and 21.8% under setting [2]. On to `C/C(=C\c1ccc2c(c1)OCO2)[N+](=O)[O-]` [IPK 000 240 37], for which the inhibition at 20 µM under setting [3] turned out to be 17% and the inhibition at 20 µM under setting [4] stood at 67.5%.

In the case of `O=C(Nc1ccc(C(F)(F)F)cc1)Nc1cccc(F)c1` [IPK 000 146 91], the inhibition at 20 µM under setting [1] turned out to be 70% and the inhibition at 20 µM under setting [2] amounted to 57%. On to `CCCC(C)c1ccc(OCC(=O)N/N=C/c2ccsc2)cc1` (centres unmarked) [IPK 000 148 11], for which the inhibition at 20 µM reads like this: under setting [1], 86.6%; under setting [2], 65.4%. The like results for `Cc1cccc(C(=O)NCCC(C)C)c1` [IPK 000 210 74] were, in that order, 20.2% and 76.4%. As for `O=C(CSc1ccc(Nc2ccc(Cl)cc2)nn1)Nc1ccc(Cl)cc1` [IPK 000 200 16], the inhibition at 20 µM by setting is: under setting [1], 76.8%; under setting [2], 73.3%.

With `O=[N+]([O-])c1ccc(/C=N/c2ccc(Cl)c([N+](=O)[O-])c2)o1` [IPK 000 178 24], the inhibition at 20 µM under setting [3] is -26.4% and the inhibition at 20 µM under setting [4] was -4.1%. Regarding `Cc1ccc(C)n1-c1ccc(C(=O)O)c(O)c1` [IPK 000 200 47], the inhibition at 20 µM is 19.1% under setting [1] and 6.3% under setting [2]. As for `O=c1[nH]cc(Sc2cccc3cccnc23)c(=O)[nH]1` [IPK 000 149 02], the inhibition at 20 µM under setting [1] worked out at 19.1% and the inhibition at 20 µM under setting [2] came to 23.5%. On to `O=C(Nc1ccc(NC(=O)c2cccnc2)cc1)C1=CCCS1` [IPK 000 199 70], for which the inhibition at 20 µM runs as follows: under setting [1], 69.6%; under setting [2], 70.5%. Regarding `Cc1ccn2cc(-c3ccc(F)cc3)nc2c1` [IPK 000 129 91], the inhibition at 20 µM by setting is: under setting [1], 38.2%; under setting [2], -36%. `CCCC(=O)Nc1ccc(-c2csc(N/N=C/c3ccc(SC)cc3)n2)cc1` [IPK 000 163 51]: the inhibition at 20 µM is 50% under setting [1] and 89.4% under setting [2]. On the same counts, the results for `C/C(=N\NC(=O)COc1cccc(Br)c1)c1ccccn1` [IPK 000 157 55] are 19.9% and 22%. Consider `NNC(=O)CSc1nc2ccccc2s1` [IPK 000 160 45], for which the inhibition at 20 µM came to 70.7% under setting [1] and 66% under setting [2]. The like results for `O=C1Nc2ccccc2/C1=C(\c1ccccc1)c1nc2ccccc2[nH]1` [IPK 000 259 35] were, in that order, 68.8% and 66%. On the same counts, the results for `Cc1ccc(/C=N/NC(=O)c2ccncc2)o1` [IPK 000 219 26] are 51.4% and 91.1%.

Regarding `COc1cccc(C(O)c2cccs2)c1` (centres unmarked) [IPK 000 171 27], the inhibition at 20 µM reads like this: under setting [1], 95.2%; under setting [2], 95.2%. For `O=C(NC1CCCCCC1)c1cc([N+](=O)[O-])cc([N+](=O)[O-])c1` [IPK 000 046 83], the inhibition at 20 µM amounted to 75.8% under setting [3] and 61.7% under setting [4]. Turning to `Cc1ccc(NC(=O)c2ccc(CSc3ccccn3)cc2)c(C)c1` [IPK 000 125 22], the inhibition at 20 µM reads like this: under setting [1], 82%; under setting [2], 75.4%. The like results for `CCOc1ccc(C(=O)NCCC(C)C)cc1` [IPK 000 210 83] were, in that order, 48.2% and 70.4%. The like results for `O=C(CCCCC1=CCCS1)Nc1ccc(C(F)(F)F)cc1` [IPK 000 148 64] were, in that order, 71.4% and 72.5%. On to `O=C(NNC(=O)c1cc([N+](=O)[O-])cc([N+](=O)[O-])c1)c1ccc(COc2ccc3c(c2)CCC3)cc1` [IPK 000 149 44], for which the inhibition at 20 µM was found to be 57.6% under setting [3] and 47.1% under setting [4]. On the same counts, the results for `CCOc1ccc(NN=C(C#N)C#N)cc1` [IPK 000 170 72] are -29.5% and -21.3%. With `COc1ccc(/C=N/NC(=O)c2ccncc2)cc1` [IPK 000 219 28], the inhibition at 20 µM under setting [1] was found to be 46.2% and the inhibition at 20 µM under setting [2] stood at 106%.

`O=C(Nc1nccs1)c1ccc(COc2ccc(F)cc2)o1` [IPK 000 141 08]: the inhibition at 20 µM stood at 84% under setting [1] and 67.5% under setting [2]. The like results for `O=C(NCCC1=CCCCC1)C(=O)Nc1cccc(F)c1` [IPK 000 133 46] were, in that order, 94.4% and 69.6%. With `O=C(Nc1ccc(Cl)c(Cl)c1)c1ccco1` [IPK 000 048 49], the inhibition at 20 µM runs as follows: under setting [3], 84.5%; under setting [4], 92.9%. As to `CO[C@H]1/C=C/O[C@@]2(C)Oc3c(C)c(O)c4c(O)c(c(/C=N/N5CCN(C)CC5)c(O)c4c3C2=O)NC(=O)/C(C)=C\C=C\[C@H](C)[C@H](O)[C@@H](C)[C@@H](O)[C@@H](C)[C@H](OC(C)=O)[C@@H]1C` [rifampin, reference compound], for the setting “120 h, read-out: minimal inhibitory concentration (MIC)”, the MIC is 2.4 µg/mL (≈ 2.92 µM). `Cc1ccc(NC(=O)c2ccc(CSC3=NCCS3)cc2)c(C)c1` [IPK 000 125 15]: the inhibition at 20 µM by setting is: under setting [1], 88.7%; under setting [2], 87.1%. Regarding `O=C(COc1cccc(Cl)c1)N/N=C/c1ccc([N+](=O)[O-])o1` [IPK 000 147 98], the inhibition at 20 µM reads like this: under setting [1], 72.3%; under setting [2], 6.3%.

As for `COc1cc(/C=N/NC(=O)c2ccncc2)cc(Br)c1OCc1ccccc1Cl` [IPK 000 157 51], the inhibition at 20 µM under setting [1] worked out at 46.2% and the inhibition at 20 µM under setting [2] worked out at 96%. As for `CSc1ccc(/C=N/Nc2nc(-c3ccc(NC(C)=O)cc3)cs2)cc1` [IPK 000 163 67], the inhibition at 20 µM by setting is: under setting [1], 99.5%; under setting [2], 68.1%. The like results for `Oc1ccccc1/N=C/c1ccc(OCc2ccccc2)cc1` [IPK 000 169 86] were, in that order, 13% and 0.5%. On to `CC1=NN(C(N)=S)C(=O)/C1=N/Nc1ccc(C)cc1` [IPK 000 168 31], for which the inhibition at 20 µM by setting is: under setting [1], 78.1%; under setting [2], 83.9%.

For `O=C(O)c1cccc2c1NC(c1ccccc1[N+](=O)[O-])C1Cc3ccccc3C21` (centres unmarked) [IPK 000 241 72], the inhibition at 20 µM under setting [1] stood at 28% and the inhibition at 20 µM under setting [2] is -43.3%.

Take `C/C(=N/c1ccc(S(=O)(=O)N2CCOCC2)cc1)Nc1ccc(C(=O)O)c(O)c1` [IPK 000 128 37]: the inhibition at 20 µM runs as follows: under setting [1], 26.5%; under setting [2], 43.8%. With `COc1ccccc1N1CCN(C(=O)c2ccc([N+](=O)[O-])o2)CC1` [IPK 000 235 12], the inhibition at 20 µM reads like this: under setting [1], 26.9%; under setting [2], -67.9%. The like results for `O=C(NC12CC3CC(CC(C3)C1)C2)N1CCN(c2ccccc2)CC1` [IPK 000 249 84] were, in that order, 80.9% and 78.2%.

As to `O=[N+]([O-])c1ccc(O)c(-c2cc(C(F)(F)C(F)F)[nH]n2)c1` [IPK 000 164 52], the inhibition at 20 µM runs as follows: under setting [1], 80%; under setting [2], 64.7%. The like results for `O=C(Nc1ccc(Br)c(Cl)c1)c1cccs1` [IPK 000 169 42] were, in that order, 76.9% and -64%. In the case of `Cc1cc(OCC(=O)NN)ccc1Br` [IPK 000 192 59], the inhibition at 20 µM by setting is: under setting [1], 81.1%; under setting [2], 65.3%. On the same counts, the results for `C#C/C(=C/c1ccc(-c2ccc(N3CCCCC3)c([N+](=O)[O-])c2)o1)C(=O)OCC` [IPK 000 229 72] are 90.7% and 69.4%.
